Measured values taken from US20050148553A1, “Use of tigecycline, alone, or in combination with rifampin to treat osteomyelitis and/or septic arthritis” (priority 2003, published 2005).

Assay: Whole body autoradiography after 30-minute 3 mg/kg IV infusion of [^14C]-tigecycline
Format: in vivo, Sprague-Dawley rats
Procedure: Male Sprague-Dawley and Long-Evans rats were obtained from Charles River Breeding Laboratories, Raleigh, N.C., and were quarantined for at least one week prior to the start of the study. […] The dosing solution was diluted and radioassayed directly in Ultima Gold scintillation counting cocktail (Packard Inc.). […] All pumps were calibrated prior to the administration of the compound. Rats were anesthetized with isoflurane prior to cardiac puncture exsanguination at the prescribed times after dosing. […] Control whole blood was collected from male Sprague-Dawley rats into tubes containing sodium heparin. Pooled blood was used to prepare the calibration standards and quality control samples. The standards were used to construct the standard curve for the quantification of radiolabeled drug distribution in tissues of whole blood cryosections. The quality controls, which were embedded in the same CMC block with each rat, were used for assessing intra- and inter-section variation in the thickness of rat whole-body cryosections. […] Immediately following euthanasia, each rat was totally immersed in a bath of hexane and dry ice (−75° C.) until frozen. Each carcass was dried and stored at −30° C. until embedded. […] Each frozen rat was sagitally sectioned at −20° C. A sufficient number of sections were collected to ensure sampling of all tissues of interest. The sections were dehydrated overnight in a cryochamber and then rapidly transferred to a dessicator containing CaSO4 to prevent condensation of atmospheric moisture while equilibrating to room temperature. The sections were mounted on cardboard and labeled with [^14C]-labeled black ink with a unique identification number. […] A small piece of Scotch tape was placed over the dried radioactive ink to prevent the contamination of the storage phosphor screens. Phosphor imaging plates, BAS-SR 2025 (Fuji Photo Film Co., Japan) were exposed to bright visible light for 20 minutes using an IP eraser (Raytest, USA Inc., New Castle, Del.) to remove background radiation. Sections and calibration blood standards were concurrently placed in direct contact with Ips and exposed for 7 days. All sections were stored at room temperature in a lead shielding box to minimize background levels. Phosphor images were generated using a Fujifilm BAS-5000 Bio-Imaging Analyzer and quantitated by MCID M2 Software, version 3.2 (Imaging Research Inc., St. Catherines, Ontario, Canada). The STDs and QCs were analyzed using the circular sampling tool in the MCID software program. Areas of interest in whole-body sections were manually outlined with the regional sampling tool to generate count data. Radioactive concentrations in select tissues were determined by digital analysis of the resulting autoradiograms on the basis of a calibration curve. […] The linear regression curve was then used to determine the concentration of unknown radioactivity of study samples. […] Blood samples were combusted using a Model 307 sample oxidizer (Packard Instrument Company). […] Research Triangle Park, N.C.), which applies a model-independent approach and standard procedures as described in Gibaldi and Perrier. Gibaldi, Pharmacokinetics, 1982. […] For IV infusion dosing, C30 min was the concentration at 30 minutes, the first sampling time point. The maximum plasma concentration (Cmax) and the corresponding time of peak concentration following IV administration were obtained directly by numerical inspection from the individual concentration-time data. The terminal half-life was calculated by the ratio of ln2/λz where λz is derived from the terminal slope of the concentration time curve. The area under the plasma concentration versus time curve from zero to infinity was calculated using the trapezoidal rule, where Clast is the last measurable plasma concentration. […]

Structure (SMILES): CN(C)c1cc(NC(=O)CNC(C)(C)C)c(O)c2c1C[C@H]1C[C@H]3[C@H](N(C)C)C(O)=C(C(N)=O)C(=O)[C@@]3(O)C(O)=C1C2=O [[^14C]-Tigecycline]
- Mean concentration of total radioactivity (Liver, 24 Hrs): 160 ng equiv./g
- Tissue:Plasma Ratio (Liver, 24 Hrs): 10.8
- Mean concentration of total radioactivity (Liver, 72 Hrs): 22.7 ng equiv./g
- Tissue:Plasma Ratio (Liver, 72 Hrs): 5.26
- Mean concentration of total radioactivity (Liver, 168 Hrs): 13.3 ng equiv./g
- Mean concentration of total radioactivity (Liver, 336 Hrs): <5.10 ng equiv./g
- AUC (Liver, first AUC column): 52676 Ng eq hr/g
- Mean concentration of total radioactivity (Lung, 0.5 Hrs): 2981 ng equiv./g
- Tissue:Plasma Ratio (Lung, 0.5 Hrs): 3.33
- Mean concentration of total radioactivity (Lung, 8.5 Hrs): 496 ng equiv./g
- Tissue:Plasma Ratio (Lung, 8.5 Hrs): 0.984
- Mean concentration of total radioactivity (Lung, 24 Hrs): 73.1 ng equiv./g
- Tissue:Plasma Ratio (Lung, 24 Hrs): 4.96
- Mean concentration of total radioactivity (Lung, 72 Hrs): 13.5 ng equiv./g
- Tissue:Plasma Ratio (Lung, 72 Hrs): 3.13
- Mean concentration of total radioactivity (Lung, 168 Hrs): <5.10 ng equiv./g
- Mean concentration of total radioactivity (Lung, 336 Hrs): <5.10 ng equiv./g
- AUC (Lung, first AUC column): 21263 Ng eq hr/g
- AUC (Lymph Node): 37010 Ng eq hr/g
- Mean concentration of total radioactivity (Lymph Node, 0.5 Hrs): 3473 ng equiv./g
- Tissue:Plasma Ratio (Lymph Node, 0.5 Hrs): 3.88
- Mean concentration of total radioactivity (Lymph Node, 8.5 Hrs): 1276 ng equiv./g
- Tissue:Plasma Ratio (Lymph Node, 8.5 Hrs): 2.53
- Mean concentration of total radioactivity (Lymph Node, 24 Hrs): 180 ng equiv./g
- Tissue:Plasma Ratio (Lymph Node, 24 Hrs): 12.2
- Mean concentration of total radioactivity (Lymph Node, 72 Hrs): 29.1 ng equiv./g
- Tissue:Plasma Ratio (Lymph Node, 72 Hrs): 6.75
- Mean concentration of total radioactivity (Lymph Node, 168 Hrs): <5.10 ng equiv./g
- Mean concentration of total radioactivity (Lymph Node, 336 Hrs): <5.10 ng equiv./g
- AUC (Lymph Node, first AUC column): 36478 Ng eq hr/g
- AUC (Muscle): 34910 Ng eq hr/g
- Mean concentration of total radioactivity (Muscle, 0.5 Hrs): 2260 ng equiv./g
- Tissue:Plasma Ratio (Muscle, 0.5 Hrs): 2.52
- Mean concentration of total radioactivity (Muscle, 8.5 Hrs): 1863 ng equiv./g
- Tissue:Plasma Ratio (Muscle, 8.5 Hrs): 3.70
- Mean concentration of total radioactivity (Muscle, 24 Hrs): 85.8 ng equiv./g
- Tissue:Plasma Ratio (Muscle, 24 Hrs): 5.801
- Mean concentration of total radioactivity (Muscle, 72 Hrs): 6.24 ng equiv./g
- Tissue:Plasma Ratio (Muscle, 72 Hrs): 1.45
- Mean concentration of total radioactivity (Muscle, 168 Hrs): <5.10 ng equiv./g
- Mean concentration of total radioactivity (Muscle, 336 Hrs): <5.10 ng equiv./g
- AUC (Muscle, first AUC column): 34833 Ng eq hr/g
- AUC (Pancreas): 33014 Ng eq hr/g
- Mean concentration of total radioactivity (Pancreas, 0.5 Hrs): 4437 ng equiv./g
- Tissue:Plasma Ratio (Pancreas, 0.5 Hrs): 4.96
- Mean concentration of total radioactivity (Pancreas, 8.5 Hrs): 971 ng equiv./g
- Tissue:Plasma Ratio (Pancreas, 8.5 Hrs): 1.93
- Mean concentration of total radioactivity (Pancreas, 24 Hrs): 70.0 ng equiv./g
- Tissue:Plasma Ratio (Pancreas, 24 Hrs): 4.75
- Mean concentration of total radioactivity (Pancreas, 72 Hrs): 7.41 ng equiv./g
- Tissue:Plasma Ratio (Pancreas, 72 Hrs): 1.72
- Mean concentration of total radioactivity (Pancreas, 168 Hrs): <5.10 ng equiv./g
- Mean concentration of total radioactivity (Pancreas, 336 Hrs): <5.10 ng equiv./g
- AUC (Pancreas, first AUC column): 32908 Ng eq hr/g
- AUC (Pituitary): 45164 Ng eq hr/g
- Mean concentration of total radioactivity (Pituitary, 0.5 Hrs): 3693 ng equiv./g
- Tissue:Plasma Ratio (Pituitary, 0.5 Hrs): 4.13
- Mean concentration of total radioactivity (Pituitary, 8.5 Hrs): 2014 ng equiv./g
- Tissue:Plasma Ratio (Pituitary, 8.5 Hrs): 4.00
- Tissue:Plasma Ratio (Pituitary, 24 Hrs): 9.79
- Tissue:Plasma Ratio (Pituitary, 72 Hrs): 4.36
- AUC (Pituitary, first AUC column): 44882 Ng eq hr/g
- AUC (Plasma): 10652 Ng eq hr/g
- Tissue:Plasma Ratio (Plasma, 0.5 Hrs): 1.00
- Tissue:Plasma Ratio (Plasma, 8.5 Hrs): 1.00
- Tissue:Plasma Ratio (Plasma, 24 Hrs): 1.00
- Tissue:Plasma Ratio (Plasma, 72 Hrs): 1.00
- AUC (Plasma, first AUC column): 10643 Ng eq hr/g
- AUC (Salivary Gland): 110979 Ng eq hr/g
- Tissue:Plasma Ratio (Salivary Gland, 0.5 Hrs): 6.45
- Tissue:Plasma Ratio (Salivary Gland, 8.5 Hrs): 12.53
- Tissue:Plasma Ratio (Salivary Gland, 24 Hrs): 20.3
- Tissue:Plasma Ratio (Salivary Gland, 72 Hrs): 7.32
- AUC (Salivary Gland, first AUC column): 110558 Ng eq hr/g
- AUC (Skin): 36471 Ng eq hr/g
- Tissue:Plasma Ratio (Skin, 0.5 Hrs): 2.15
- Tissue:Plasma Ratio (Skin, 8.5 Hrs): 1.14
- Tissue:Plasma Ratio (Skin, 24 Hrs): 16.9
- Tissue:Plasma Ratio (Skin, 72 Hrs): 19.3
- AUC (Skin, first AUC column): 31819 Ng eq hr/g
- AUC (Spleen): 70522 Ng eq hr/g
- Cmax (Spleen): 6627 Ng equiv/g
- Tissue:Plasma Ratio (Spleen, 0.5 Hrs): 7.40
- Tissue:Plasma Ratio (Spleen, 8.5 Hrs): 3.36
- Tissue:Plasma Ratio (Spleen, 24 Hrs): 32.3
- Tissue:Plasma Ratio (Spleen, 72 Hrs): 16.7
- AUC (Spleen, first AUC column): 69638 Ng eq hr/g
- Tissue:Plasma Ratio (Testes, 0.5 Hrs): 0.388
- Tissue:Plasma Ratio (Testes, 8.5 Hrs): 0.716
- Tissue:Plasma Ratio (Testes, 24 Hrs): 8.08
- Tissue:Plasma Ratio (Testes, 72 Hrs): 3.80
- AUC (Testes, first AUC column): 9975 Ng eq hr/g
- AUC (Testes, second AUC column): 10323 Ng eq hr/g
- AUC (Testes, second AUC column, listed as [^14C]-tigecycline): 10303 Ng eq hr/g
- AUC (Thymus): 35430 Ng eq hr/g
- Tissue:Plasma Ratio (Thymus, 0.5 Hrs): 2.82
- Tissue:Plasma Ratio (Thymus, 8.5 Hrs): 3.16
- Tissue:Plasma Ratio (Thymus, 24 Hrs): 10.7
- Tissue:Plasma Ratio (Thymus, 72 Hrs): 3.55
- AUC (Thymus, first AUC column): 35204 Ng eq hr/g
- AUC (Thyroid): 330047 Ng eq hr/g
- Tissue:Plasma Ratio (Thyroid, 0.5 Hrs): 3.34
- Tissue:Plasma Ratio (Thyroid, 8.5 Hrs): 3.50
- Tissue:Plasma Ratio (Thyroid, 24 Hrs): 24.0
- Tissue:Plasma Ratio (Thyroid, 72 Hrs): 56.0
- Tissue:Plasma Ratio (Thyroid, 72 Hrs, listed as [^14C]-tigecycline): 56
- AUC (Thyroid, first AUC column): 113022 Ng eq hr/g
- AUC (lung): 21523 Ng eq hr/g
- elimination half-lives across tissues (male, Sprague-Dawley, rat, in vivo): 5 to 217 h
